Data on 25 compounds can be found in ChEMBL document CHEMBL4387717, “Structure guided drug design to develop kallikrein 5 inhibitors to treat Netherton syndrome” (Bioorg Med Chem Lett, 2019).

Converted amounts (≈) assume the structure as drawn.

In one data set the target is T1, Kallikrein-5 (Homo sapiens, UniProt Q9Y337).
T1 sequence (Q9Y337 whole entry): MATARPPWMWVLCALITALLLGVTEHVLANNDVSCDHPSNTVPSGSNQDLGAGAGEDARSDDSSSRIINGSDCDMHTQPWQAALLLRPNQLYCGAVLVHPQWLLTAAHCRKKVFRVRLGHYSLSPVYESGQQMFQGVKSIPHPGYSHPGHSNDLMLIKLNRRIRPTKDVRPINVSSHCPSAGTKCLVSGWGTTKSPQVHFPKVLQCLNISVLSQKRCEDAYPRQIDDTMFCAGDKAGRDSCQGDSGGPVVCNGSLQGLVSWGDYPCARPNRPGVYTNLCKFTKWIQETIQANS
Briefly: Inhibition of recombinant 6His-Q-FLAG tagged human KLK5 expressed in baculovirus infected Sf9 insect cells using (Tos-Gly-Pro-Arg)2[R110].2TFA as substrate measured at 30 secs interval for 5 mins by fluorescence intensity assay.

In a further data set the target is Kallikrein-1 (Homo sapiens, UniProt P06870). Briefly: Inhibition of recombinant bovine enterokinase activated N-terminal His-tagged recombinant human KLK1 (19 to 262 residues) expressed in baculovirus infected Sf9 insect cells using 3',6'-bis(prolylphenylalanylarginylamino)3H-spiro(2-benzofuran-1,9'-xanthen)-3-one;TFA as substrate measured at 30 secs interval for 5 mins by fluorescence intensity assay.
Sequence of Kallikrein-1 (P06870 whole entry, the tested form may be a part): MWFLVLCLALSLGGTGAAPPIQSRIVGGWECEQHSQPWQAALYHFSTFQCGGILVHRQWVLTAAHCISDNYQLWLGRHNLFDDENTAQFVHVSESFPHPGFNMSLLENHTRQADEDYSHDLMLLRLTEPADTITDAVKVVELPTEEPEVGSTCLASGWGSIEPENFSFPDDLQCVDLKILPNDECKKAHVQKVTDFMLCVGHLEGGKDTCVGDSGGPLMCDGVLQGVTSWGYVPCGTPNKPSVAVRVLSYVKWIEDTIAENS

The species entered for another data set is Homo sapiens. The data set can be described thus: Selectivity index, ratio of compound effect for inhibition of recombinant bovine enterokinase activated N-terminal His-tagged recombinant human KLK1 (19 to 262 residues) expressed in baculovirus infected Sf9 insect cells to compound effect for inhibition of recombinant 6His-Q-FLAG tagged human KLK5 expressed in baculovirus infected insect Sf9 cells.

Data set [1] in a line: Solubility of the compound in water at 24 hrs. It counts as physicochemical.
Data set [2] can be described thus: Solubility of the compound in pH 4 Britton-Robinson buffer at 24 hrs. It is filed as physicochemical. Conditions: buffer, pH 4, 24 h.
A short description of data set [3]: Solubility of the compound in pH 6 Britton-Robinson buffer at 24 hrs. It is filed as physicochemical. The settings on record: buffer, pH 6, 24 h.
Data set [4] in a line: Half life in pH 4 to 8 buffer at 0.05 mg/ml over 24 hrs. It is filed as physicochemical.
A short description of data set [5]: Half life in pH 6 buffer at 0.05 mg/ml under H2O2-induced oxidative condition over 24 hrs. It is filed as physicochemical. The settings on record: buffer with H2O2, pH 6.
Data set [6] is described as follows: Half life in pH 8 buffer at 0.05 mg/ml under H2O2-induced oxidative condition over 24 hrs. It is filed as physicochemical. Conditions: buffer with H2O2, pH 8.
Data set [7] is described as follows: Absorption property in methanol assessed as maximum absorption wavelength by UV-spectra analysis. It counts as physicochemical.
Data set [8] is described as follows: Absorption property in methanol assessed as molar extinction co-efficient by UV-spectra analysis. It counts as physicochemical.

As for `Cn1ccnc1CNc1ccc(C(=N)N)cc1`, the IC50 at Kallikrein-5 (read-out: pIC50 (converted)) was 126 µM; on Kallikrein-1, 398 µM.
`N=C(N)c1ccc(NCc2nc(-c3ccccc3)c[nH]2)cc1OCc1cccc(Cl)c1`: the IC50 is 0.0794 µM at Kallikrein-5 (read-out: pIC50 (converted)) and over 5.01 µM on Kallikrein-1.
The corresponding values for `Cn1c(CNc2ccc(C(=N)N)cc2)nc2ccccc21` are 15.8 µM and 6.31 µM.
Taken in the same sequence, the figures for `N=C(N)c1ccc(NCc2nc(-c3ccccc3)c[nH]2)cc1OCc1ncco1` were 0.1 µM and 12.6 µM.
The corresponding values for `CNC(=O)COc1cc(NCc2nc(-c3ccccc3)c[nH]2)ccc1C(=N)N` are 0.251 µM and 31.6 µM.
With `N=C(N)c1ccc(NCc2nc(-c3ccccc3)c[nH]2)cc1`, the IC50 at Kallikrein-5 (read-out: pIC50 (converted)) is 6.31 µM; at Kallikrein-1, 25.1 µM.
As to `N=C(N)c1ccc(NCc2nc(-c3ccccc3)c[nH]2)cc1OCC1CC1`, the IC50 is 0.794 µM on Kallikrein-5 (read-out: pIC50 (converted)) and 50.1 µM at Kallikrein-1. In the data set filed under Homo sapiens, the Selectivity Index was determined as 60.
Take `N=C(N)c1ccc(NCc2nc(-c3ccccc3)c[nH]2)cc1OCc1ncccn1`: the IC50 at Kallikrein-5 (read-out: pIC50 (converted)) is 0.0794 µM; on Kallikrein-1, 39.8 µM.
The corresponding values for `CN(C)CCOc1cc(NCc2nc(-c3ccccc3)c[nH]2)ccc1C(=N)N` are 15.8 µM and 79.4 µM.
Taken in the same sequence, the figures for `N=C(N)c1ccc(NCc2ncc[nH]2)cc1` were 25.1 µM and 63.1 µM.
For the compound `N=C(N)c1ccc(NCc2nc3cc(Cl)ccc3[nH]2)cc1`, the IC50 at Kallikrein-5 (read-out: pIC50 (converted)) was 10 µM; on Kallikrein-1, 2 µM.
Turning to `N=C(N)c1ccc(NCc2nc(-c3ccccc3)c[nH]2)cc1OCCC1CC1`, the IC50 at Kallikrein-5 (read-out: pIC50 (converted)) is 0.2 µM; at Kallikrein-1, 50.1 µM. For the same compound, the Selectivity Index in the data set filed under Homo sapiens stood at 250.
On to `N=C(N)c1ccc(NCc2nc(-c3ccccc3)c[nH]2)cc1OCc1ccccn1`, for which the IC50 at Kallikrein-5 (read-out: pIC50 (converted)) was 0.126 µM; on Kallikrein-1 it was 20 µM.
Taken in the same sequence, the figures for `N=C(N)c1ccc(NCc2nc(-c3ccccc3)c[nH]2)cc1OCc1ccc(Cl)cc1` were 0.0631 µM and over 5.01 µM.
Taken in the same sequence, the figures for `CC(C)COc1cc(NCc2nc(-c3ccccc3)c[nH]2)ccc1C(=N)N` were 6.31 µM and 79.4 µM.
The corresponding values for `COc1ccc2[nH]c(CNc3ccc(C(=N)N)cc3)nc2c1` are 12.6 µM and 31.6 µM.
On to `N=C(N)c1ccc(NCc2nc(-c3ccccc3)c[nH]2)cc1OCc1ccccc1Cl`, for which the IC50 on Kallikrein-5 (read-out: pIC50 (converted)) was 0.0316 µM; at Kallikrein-1, over 2.51 µM.
As to `CCOc1cc(NCc2nc(-c3ccccc3)c[nH]2)ccc1C(=N)N`, the IC50 at Kallikrein-5 (read-out: pIC50 (converted)) is 0.316 µM; at Kallikrein-1, 6.31 µM. Further, in the data set listed under Homo sapiens, the Selectivity Index amounted to 20.
Turning to `N=C(N)c1ccc(NCc2nc3ccccc3[nH]2)cc1`, the IC50 on Kallikrein-5 (read-out: pIC50 (converted)) was 20 µM; on Kallikrein-1, 39.8 µM.
Consider `N=C(N)c1ccc(NCc2nc(-c3ccccc3)c[nH]2)cc1OCC(=O)NCC1CC1`, for which the IC50 on Kallikrein-5 (read-out: pIC50 (converted)) is 0.0398 µM; at Kallikrein-1, over 6.31 µM. Besides, the solubility at 24 h in data set [1] came out at 3000 µg/mL (≈ 7.17 mM). The solubility result in data set [2] and in data set [3] was “Soluble” each time. Moreover, the half-life at 0.05 mg/ml in [4] was over 1000 h; in [5] it was 26.7 h; in data set [6] it was 14 h. Moreover, the Activity was over 290 nm in data set [7] and over 1000 a.u.L/mol.cm in data set [8].
Consider `N=C(N)c1ccc(NCc2nc(-c3ccccc3)c[nH]2)cc1OCC(N)=O`, for which the figures for the IC50 on Kallikrein-5 (read-out: pIC50 (converted)) and at Kallikrein-1 were 0.794 µM and over 50.1 µM, respectively.
In the case of `N=C(N)c1ccc(NCc2nc(-c3ccccc3)c[nH]2)cc1OCc1ccccc1`, the results for the IC50 on Kallikrein-5 (read-out: IC50), on Kallikrein-5 (read-out: pIC50 (converted)) and on Kallikrein-1 were under 0.01 µM, 0.0794 µM and 25.1 µM, respectively. In the data set listed under Homo sapiens, the Selectivity Index is 300.
Consider `N=C(N)c1ccc(NCc2nc(-c3ccccc3)c[nH]2)cc1OCC(=O)NC1CC1`, for which the IC50 is 0.0794 µM on Kallikrein-5 (read-out: pIC50 (converted)) and 15.8 µM at Kallikrein-1.
The corresponding values for `Cc1ccc2[nH]c(CNc3ccc(C(=N)N)cc3)nc2c1` are 10 µM and 6.31 µM.
Taken in the same sequence, the figures for `N=C(N)c1ccc(NCc2nc(-c3ccccc3)c[nH]2)cc1OCCO` were 3.98 µM and 79.4 µM.

By solubility is commonly meant how much of the substance goes into solution per volume. Read a high solubility as much dissolved substance. As a reminder, the half-life is how long it takes for the measured level to halve. Lower therefore signals fast loss.
